Patent US4001218A, “Penicillins” (Bayer Aktiengesellschaft, priority 1972, dated 1977)

Assays:
Staph. aureus 133 = type: cell-based, Staphylococcus aureus; conditions: for MIC: Staph. aureus 133, 24 hours, 37°C; for Activity against Staph. aureus 133 (minimum inhibitory concentration): 24 hours' incubation
Psdm. aerug. Walter = assay: MIC, test tube series dilution test, Psdm. aerug. Walter; type: cell-based, Pseudomonas aeruginosa; conditions: for MIC: Psdm. aerug. Walter, 24 hours, 37°C; for Activity against Psdm. aerug. Walter (minimum inhibitory concentration): 24 hours' incubation
E. coli A 261 = assay: MIC, test tube series dilution test, E. coli A 261; type: cell-based; conditions: 24 hours, 37°C
Proteus morg. 932 = assay: MIC, test tube series dilution test, Proteus morg. 932; type: cell-based; conditions: 24 hours, 37°C
E. coli 14 = type: cell-based; conditions: for MIC: E. coli 14, 24 hours, 37°C; for Activity against E. coli 14 (minimum inhibitory concentration): 24 hours' incubation
Enterococcus 9790 = assay: MIC, test tube series dilution test, Enterococcus 9790; type: cell-based; conditions: 24 hours, 37°C
Proteus vulg. 1017 = type: cell-based, Proteus vulgaris; conditions: for MIC: Proteus 1017, 24 hours, 37°C; for Activity against Proteus vulg. 1017 (minimum inhibitory concentration): 24 hours' incubation
Staph. aureus 1756 = assay: MIC, test tube series dilution test, Staph. aureus 1756; type: cell-based, Staphylococcus aureus; conditions: for MIC: Staph. aureus 1756, 24 hours, 37°C
Psdm. aerug. F 41 = assay: MIC, test tube series dilution test, Psdm. aerug. F 41; type: cell-based, Pseudomonas aeruginosa; conditions: for MIC: Psdm. aerug. F 41, 24 hours, 37°C; for Activity against Psdm. aerug. F 41 (minimum inhibitory concentration): 24 hours' incubation
E. coli 183/58 = assay: MIC, test tube series dilution test, E. coli 183/58; type: cell-based; conditions: 24 hours, 37°C
E. coli C 165 = assay: MIC, test tube series dilution test, E. coli C 165; type: cell-based; conditions: 24 hours, 37°C
Klebsiella K 10 = assay: MIC, test tube series dilution test, Klebsiella K 10; type: cell-based; conditions: 24 hours, 37°C
Klebsiella 63 = assay: MIC, test tube series dilution test, Klebsiella 63; type: cell-based; conditions: for MIC: Klebsiella 63, 24 hours, 37°C; for Activity against Klebs. 63 (minimum inhibitory concentration): 24 hours' incubation

Structure (SMILES) | MIC (Staph. aureus 133) [U/ml] | MIC (Psdm. aerug. Walter) | MIC (E. coli A 261) | MIC (Proteus morg. 932) [U/ml] | MIC (E. coli 14) | MIC (Enterococcus 9790) | MIC (Psdm. aerug. F 41) | MIC (Klebsiella K 10) [U/ml] | further results
CC1(C)S[C@@H]2[C@H](NC(=O)[C@H](NC(=O)c3ccc(NC(=O)C4(O)CC4)cc3)c3ccccc3)C(=O)N2[C@H]1C(=O)O [Example 2, sodium D(-)-α-(4-cyclopropanol-1-carbonyl-aminobenzoylamino)-benzylpenicillin] | < 1 | > 256 U/ml | > 256 U/ml | > 256 |  |  |  |  | 
CC1(C)S[C@@H]2[C@H](NC(=O)[C@H](NC(=O)c3ccc(NC(=O)c4cc(Cl)cc(Cl)c4)cc3)c3ccccc3)C(=O)N2[C@H]1C(=O)O [Example 20] | < 1 | ~ 4 U/ml | ~ 256 U/ml |  | < 1 U/ml | ~ 4 U/ml |  |  | MIC (Proteus vulg. 1017): ~ 4 U/ml; MIC (Staph. aureus 1756): ~ 4 U/ml
Cc1cc(C)cc(C(=O)Nc2ccc(C(=O)N[C@@H](C(=O)N[C@@H]3C(=O)N4[C@@H]3SC(C)(C)[C@@H]4C(=O)O)c3ccccc3)cc2)c1 [Example 21] | < 1 |  | ~ 256 U/ml |  | < 1 U/ml | ~ 4 U/ml | ~ 16 U/ml |  | MIC (E. coli 183/58): ~ 1 U/ml
CC1(C)S[C@@H]2[C@H](NC(=O)[C@H](NC(=O)c3ccc(NC(=O)c4ccc(C(F)(F)F)cc4)cc3)c3ccccc3)C(=O)N2[C@H]1C(=O)O [Example 23] | < 1 |  |  |  | < 1 U/ml |  |  |  | MIC (E. coli 183/58): < 1 U/ml
CC1(C)S[C@@H]2[C@H](NC(=O)[C@H](NC(=O)c3ccc(N)cc3)c3ccccc3)C(=O)N2[C@H]1C(=O)O [Example 34, sodium D(-)-α-(4-amino-benzoylamino)-benzylpenicillin] | < 1 |  | > 256 U/ml | > 256 | ~ 16 U/ml | ~ 4 U/ml | 64 U/ml | 256 | MIC (E. coli C 165): 32 U/ml; MIC (Klebsiella 63): 128 U/ml; MIC (Proteus vulg. 1017): 128 U/ml; MIC (Staph. aureus 1756): 32 U/ml
CC(C)(CN=[N+]=[N-])C(=O)Nc1ccc(C(=O)N[C@@H](C(=O)N[C@@H]2C(=O)N3[C@@H]2SC(C)(C)[C@@H]3C(=O)O)c2ccccc2)cc1 [Example 39] | < 1 |  | > 256 U/ml |  |  |  |  |  | MIC (Staph. aureus 1756): ~ 64 U/ml
COCC(=O)Nc1ccc(C(=O)N[C@@H](C(=O)N[C@@H]2C(=O)N3[C@@H]2SC(C)(C)[C@@H]3C(=O)O)c2ccccc2)cc1 [Example 42] | < 1 |  |  |  |  | ~ 4 U/ml |  | > 256 | MIC (Proteus vulg. 1017): > 256 U/ml
CNc1ccc(C(=O)N[C@@H](C(=O)N[C@@H]2C(=O)N3[C@@H]2SC(C)(C)[C@@H]3C(=O)O)c2ccccc2)cc1 [Example 43] | < 1 | > 256 U/ml | > 256 U/ml | > 256 | ~ 16 U/ml |  |  |  | 
CNC(=O)Nc1ccc(C(=O)N[C@@H](C(=O)N[C@@H]2C(=O)N3[C@@H]2SC(C)(C)[C@@H]3C(=O)O)c2ccccc2)cc1 [Example 44] | < 1 |  |  |  | ~ 8 U/ml | 4 U/ml | ~ 64 U/ml | 256 | MIC (E. coli C 165): 16 U/ml; MIC (Klebsiella 63): 128 U/ml; MIC (Proteus vulg. 1017): > 256 U/ml; MIC (Staph. aureus 1756): 64 U/ml
CC1(C)S[C@@H]2[C@H](NC(=O)[C@H](NC(=O)c3ccc(NC(=O)Nc4ccc(F)cc4)cc3)c3ccccc3)C(=O)N2[C@H]1C(=O)O [Example 46] | < 1 |  |  |  | < 1 U/ml | ~ 4 U/ml |  |  | MIC (E. coli C 165): ~ 4 U/ml
CNC(=S)Nc1ccc(C(=O)N[C@@H](C(=O)N[C@@H]2C(=O)N3[C@@H]2SC(C)(C)[C@@H]3C(=O)O)c2ccccc2)cc1 [Example 47] | < 1 | > 256 U/ml | > 256 U/ml | > 256 | 16 U/ml | 4 U/ml | 64 U/ml | 256 | MIC (E. coli C 165): 32 U/ml; MIC (Klebsiella 63): 128 U/ml; MIC (Proteus vulg. 1017): 32 U/ml; MIC (Staph. aureus 1756): 64 U/ml
CC1(C)S[C@@H]2[C@H](NC(=O)[C@H](NC(=O)c3ccccc3NC(=O)C3CC3)c3ccccc3)C(=O)N2[C@H]1C(=O)O [Example 49] | < 1 |  |  |  |  |  | < 256 U/ml | > 256 | MIC (Klebsiella 63): > 256 U/ml
CC1(C)S[C@@H]2[C@H](NC(=O)[C@H](NC(=O)c3ccccc3NC(=O)C3CCC3)c3ccccc3)C(=O)N2[C@H]1C(=O)O [Example 50] | < 1 |  |  |  |  |  |  | > 256 | 
CC1(C)S[C@@H]2[C@H](NC(=O)[C@H](NC(=O)c3cc(NC(=O)C4CC4)ccc3Cl)c3ccccc3)C(=O)N2[C@H]1C(=O)O [Example 53] | < 1 |  |  |  | 32 U/ml | 2-4 U/ml | 128-256 U/ml | > 256 | MIC (E. coli C 165): 128-256 U/ml; MIC (E. coli 183/58): 128-256 U/ml; MIC (Klebsiella 63): 128-256 U/ml; MIC (Proteus vulg. 1017): > 256 U/ml; MIC (Staph. aureus 1756): 32-64 U/ml
CC1(C)S[C@@H]2[C@H](NC(=O)[C@H](NC(=O)CSc3ccc(NC=O)cc3)c3ccccc3)C(=O)N2[C@H]1C(=O)O [Example 59] | < 1 | > 256 U/ml | > 256 U/ml | > 256 | ~ 4 U/ml |  | > 256 U/ml |  | 
CC1(C)S[C@@H]2[C@H](NC(=O)[C@H](NC(=O)CSc3ccc(NC(=O)C4CCC4)cc3)c3ccccc3)C(=O)N2[C@H]1C(=O)O [Example 61] | < 1 | > 256 U/ml | > 256 U/ml | > 256 |  | ~ 16 U/ml |  |  | 
CC1(C)S[C@@H]2[C@H](NC(=O)[C@H](NC(=O)CNC(=O)c3ccc(NC(=O)C4CC4)cc3)c3ccccc3)C(=O)N2[C@H]1C(=O)O [Example 64] |  |  | > 256 U/ml | > 256 |  | 8 U/ml | 256 U/ml | 128 | MIC (E. coli C 165): 32 U/ml; MIC (E. coli 183/58): 64 U/ml; MIC (Klebsiella 63): 64 U/ml; MIC (Proteus vulg. 1017): 64 U/ml; MIC (Staph. aureus 1756): 16 U/ml
CC1(C)S[C@@H]2[C@H](NC(=O)[C@H](NC(=O)CNC(=O)c3ccc(N)cc3)c3ccccc3)C(=O)N2[C@H]1C(=O)O [Example 70] | < 1 | > 256 U/ml | > 256 U/ml | > 256 |  |  |  |  | 
CC1(C)S[C@@H]2[C@H](NC(=O)[C@H](NC(=O)c3ccc(NC=O)c(NC=O)c3)c3ccccc3)C(=O)N2[C@H]1C(=O)O [Example 74] | < 1 |  |  |  |  |  |  | > 256 | 
CC1(C)S[C@@H]2[C@H](NC(=O)[C@H](NC(=O)Cc3ccc(NC(=O)C4CCC4)cc3)c3ccccc3)C(=O)N2[C@H]1C(=O)O [Example 76, sodium D(-)-α-[(4-cyclobutanecarbonylaminophenyl)-acetamido]-benzylpenicillin] | < 1 | > 256 U/ml | > 256 U/ml | > 256 | < 4 U/ml | ~ 16 U/ml | > 256 U/ml |  | 
CC1(C)S[C@@H]2[C@H](NC(=O)[C@H](NC(=O)c3ccc(NC(=O)C4CCCC4)cc3O)c3ccccc3)C(=O)N2[C@H]1C(=O)O [Example 77, sodium D(-)-α-(4-cyclopentanecarbonylamino-2-hydroxybenzoylamino)benzylpenicillin] |  |  |  |  |  |  |  |  | Activity against E. coli 14 (minimum inhibitory concentration) (E. coli 14): 2-4 U/ml; Activity against Psdm. aerug. Walter (minimum inhibitory concentration) (Psdm. aerug. Walter): 8-16 U/ml; Activity against Klebs. 63 (minimum inhibitory concentration) (Klebsiella 63): 32-64 U/ml; Activity against Staph. aureus 1756 (minimum inhibitory concentration) (Staph. aureus 1756; 24 hours' incubation): 32-64 U/ml
COc1cc(C=CC(=O)Nc2ccc(C(=O)N[C@@H](C(=O)N[C@@H]3C(=O)N4[C@@H]3SC(C)(C)[C@@H]4C(=O)O)c3ccccc3)cc2)cc(OC)c1OC [Example 78, sodium D(-)-α-[4-(3,4,5-trimethoxycinnamoylamino-benzoylamino)]-benzylpenicillin] |  |  |  |  |  |  |  |  | Activity against E. coli 14 (minimum inhibitory concentration) (E. coli 14): 2-4 U/ml; Activity against Psdm. aerug. Walter (minimum inhibitory concentration) (Psdm. aerug. Walter): 32-64 U/ml; Activity against Klebs. 63 (minimum inhibitory concentration) (Klebsiella 63): 32-64 U/ml; Activity against Proteus vulg. 1017 (minimum inhibitory concentration) (Proteus vulg. 1017): 128-256 U/ml
CC1(C)S[C@@H]2[C@H](NC(=O)[C@H](NC(=O)c3ccc(NC(=O)c4ccc(S(C)(=O)=O)cc4)cc3)c3ccccc3)C(=O)N2[C@H]1C(=O)O [Example 80, sodium D(-)-α-[4-(p-methylsulphonylbenzoylamino)-benzoylamino]-benzylpenicillin] |  |  |  |  |  |  |  |  | Activity against E. coli 14 (minimum inhibitory concentration) (E. coli 14): 4-8 U/ml; Activity against Psdm. aerug. F 41 (minimum inhibitory concentration) (Psdm. aerug. F 41): 32-64 U/ml; Activity against Staph. aureus 133 (minimum inhibitory concentration) (Staph. aureus 133): < 1 U/ml; Activity against Klebs. 63 (minimum inhibitory concentration) (Klebsiella 63): 32-64 U/ml; Activity against Proteus vulg. 1017 (minimum inhibitory concentration) (Proteus vulg. 1017): 128-256 U/ml
CC1(C)S[C@@H]2[C@H](NC(=O)[C@H](NC(=O)c3ccc(NC(=O)C4CCCC4)cc3)c3ccc(O)cc3)C(=O)N2[C@H]1C(=O)O [Example 81] |  |  |  |  |  |  |  |  | Activity against E. coli 14 (minimum inhibitory concentration) (E. coli 14): 4-8 U/ml; Activity against Psdm. aerug. F 41 (minimum inhibitory concentration) (Psdm. aerug. F 41): 32-64 U/ml; Activity against Staph. aureus 133 (minimum inhibitory concentration) (Staph. aureus 133): < 1 U/ml; Activity against Klebs. 63 (minimum inhibitory concentration) (Klebsiella 63): 128-256 U/ml; Activity against Proteus vulg. 1017 (minimum inhibitory concentration) (Proteus vulg. 1017): > 256 U/ml
